Test results as given in the supplement of paper PMC10307832.

Columns and labels:
Test in all cases: relative viability (nuclei count vs DMSO), 5 days (fraction); higher = more cells survive
UMC-11 = test system: UMC-11
Method in brief: (§1)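 Lung cancer cell lines were seeded in 1536-well plates and dosed by pin tool the next day, with either a single drug or a fixed anchor-drug dose combined with five library-drug doses (not always all listed) spaced in √10 steps. Five days later, one step fixed the cells and stained their nuclei (final 0.05% Triton X-100, 1% formaldehyde, 1 ug/ml Hoechst), and nuclei were counted on 4× images. Relative viability is the nuclei count in treated wells divided by the count in vehicle wells, and each value is the median of duplicate plates.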

EPLC-272H = test system: EPLC-272H
Method in brief: as §1

EMC-BAC-2 = test system: EMC-BAC-2
Method in brief: as §1

CAL-12T = test system: CAL-12T
Method in brief: as §1

COR-L 105 = test system: COR-L 105
Method in brief: as §1

NCI-H441 = test system: NCI-H441
Method in brief: as §1

NCI-H358 = test system: NCI-H358
Method in brief: as §1

HOP-62 = test system: HOP-62
Method in brief: as §1

NCI-H2126 = test system: NCI-H2126
Method in brief: as §1

NCI-H1755 = test system: NCI-H1755
Method in brief: as §1

NCI-H322M = test system: NCI-H322M
Method in brief: as §1

HCC-15 = test system: HCC-15
Method in brief: as §1

ChaGo-K-1 = test system: ChaGo-K-1
Method in brief: as §1

NCI-H1915 = test system: NCI-H1915
Method in brief: as §1

LXF-289 = test system: LXF-289
Method in brief: as §1

NCI-H2023 = test system: NCI-H2023
Method in brief: as §1

HCC-78 = test system: HCC-78
Method in brief: as §1

NCI-H2085 = test system: NCI-H2085
Method in brief: as §1

NCI-H3122 = test system: NCI-H3122
Method in brief: as §1

NCI-H1975 = test system: NCI-H1975
Method in brief: as §1

NCI-H1666 = test system: NCI-H1666
Method in brief: as §1

For `COc1nc(C)cnc1NS(=O)(=O)c1cccnc1-c1ccc(-c2nnco2)cc1` [Zibotentan] + Nc1nc2[nH]cc(CCc3ccc(C(=O)N[C@@H](CCC(=O)O)C(=O)O)cc3)c2c(=O)[nH]1 [Pemetrexed] (partner 0.2 µM), the relative viability (UMC-11; first compound 0.08 µM) was 0.671, the relative viability (UMC-11; first compound 0.253 µM) was 0.727 and the relative viability (UMC-11; first compound 0.8 µM) was 0.742. The relative viability (UMC-11; first compound 2.53 µM) was 0.859, the relative viability (EPLC-272H; first compound 0.253 µM) was 0.319 and the relative viability (EPLC-272H; first compound 0.8 µM) was 0.309. For the same compound, the relative viability (EPLC-272H; first compound 2.53 µM) was 0.405, the relative viability (EMC-BAC-2; first compound 0.08 µM) was 0.457 and the relative viability (EMC-BAC-2; first compound 0.8 µM) was 0.406. For the same compound, the relative viability (EMC-BAC-2; first compound 2.53 µM) was 0.44, the relative viability (CAL-12T; first compound 0.08 µM) was 1.28 and the relative viability (CAL-12T; first compound 0.253 µM) was 1.06. It also gave a relative viability (CAL-12T; first compound 0.8 µM) of 1.23, a relative viability (CAL-12T; first compound 2.53 µM) of 1.16 and a relative viability (COR-L 105; first compound 0.08 µM) of 1.08. The relative viability (COR-L 105; first compound 0.253 µM) was 0.87, the relative viability (COR-L 105; first compound 0.8 µM) was 1.21 and the relative viability (COR-L 105; first compound 2.53 µM) was 1.05. It also gave a relative viability (NCI-H441; first compound 0.08 µM) of 0.284, a relative viability (NCI-H441; first compound 0.253 µM) of 0.298 and a relative viability (NCI-H441; first compound 0.8 µM) of 0.262. For the same compound, the relative viability (NCI-H441; first compound 2.53 µM) was 0.249, the relative viability (NCI-H358; first compound 0.08 µM) was 0.189 and the relative viability (NCI-H358; first compound 0.253 µM) was 0.141. It also gave a relative viability (NCI-H358; first compound 2.53 µM) of 0.184, a relative viability (HOP-62; first compound 0.08 µM) of 0.319 and a relative viability (HOP-62; first compound 0.253 µM) of 0.408. It also gave a relative viability (HOP-62; first compound 0.8 µM) of 0.281, a relative viability (HOP-62; first compound 2.53 µM) of 0.352 and a relative viability (NCI-H2126; first compound 0.08 µM) of 0.713. For the same compound, the relative viability (NCI-H2126; first compound 0.253 µM) was 0.657, the relative viability (NCI-H2126; first compound 0.8 µM) was 0.435 and the relative viability (NCI-H2126; first compound 2.53 µM) was 0.78. The relative viability (NCI-H1755; first compound 0.08 µM) was 0.44, the relative viability (NCI-H1755; first compound 0.253 µM) was 0.453 and the relative viability (NCI-H1755; first compound 0.8 µM) was 0.383. For the same compound, the relative viability (NCI-H1755; first compound 2.53 µM) was 0.455, the relative viability (NCI-H322M; first compound 0.08 µM) was 0.661 and the relative viability (NCI-H322M; first compound 0.253 µM) was 0.553. It also gave a relative viability (NCI-H322M; first compound 0.8 µM) of 0.526, a relative viability (NCI-H322M; first compound 2.53 µM) of 0.65 and a relative viability (HCC-15; first compound 0.08 µM) of 0.221. The relative viability (HCC-15; first compound 0.253 µM) was 0.22, the relative viability (HCC-15; first compound 0.8 µM) was 0.217 and the relative viability (HCC-15; first compound 2.53 µM) was 0.227. The relative viability (ChaGo-K-1; first compound 0.08 µM) was 0.261, the relative viability (ChaGo-K-1; first compound 0.253 µM) was 0.258 and the relative viability (ChaGo-K-1; first compound 0.8 µM) was 0.275. The relative viability (ChaGo-K-1; first compound 2.53 µM) was 0.351, the relative viability (NCI-H1915; first compound 0.08 µM) was 0.477 and the relative viability (NCI-H1915; first compound 0.253 µM) was 0.493. It also gave a relative viability (NCI-H1915; first compound 0.8 µM) of 0.357, a relative viability (NCI-H1915; first compound 2.53 µM) of 0.526 and a relative viability (LXF-289; first compound 0.08 µM) of 0.88. For the same compound, the relative viability (LXF-289; first compound 0.253 µM) was 0.936, the relative viability (LXF-289; first compound 0.8 µM) was 0.854 and the relative viability (LXF-289; first compound 2.53 µM) was 0.916. The relative viability (NCI-H2023; first compound 0.08 µM) was 0.243, the relative viability (NCI-H2023; first compound 0.8 µM) was 0.225 and the relative viability (NCI-H2023; first compound 2.53 µM) was 0.251. For the same compound, the relative viability (HCC-78; first compound 0.08 µM) was 0.876, the relative viability (HCC-78; first compound 0.253 µM) was 0.892 and the relative viability (HCC-78; first compound 0.8 µM) was 0.877. For the same compound, the relative viability (HCC-78; first compound 2.53 µM) was 0.889, the relative viability (NCI-H2085; first compound 0.08 µM) was 0.884 and the relative viability (NCI-H2085; first compound 0.253 µM) was 0.852. It also gave a relative viability (NCI-H2085; first compound 0.8 µM) of 0.892, a relative viability (NCI-H2085; first compound 2.53 µM) of 0.918 and a relative viability (NCI-H3122; first compound 0.08 µM) of 0.204. The relative viability (NCI-H3122; first compound 0.253 µM) was 0.199, the relative viability (NCI-H3122; first compound 0.8 µM) was 0.308 and the relative viability (NCI-H3122; first compound 2.53 µM) was 0.219. For the same compound, the relative viability (NCI-H1975; first compound 0.08 µM) was 0.308, the relative viability (NCI-H1975; first compound 0.253 µM) was 0.281 and the relative viability (NCI-H1975; first compound 0.8 µM) was 0.289. It also gave a relative viability (NCI-H1975; first compound 2.53 µM) of 0.299, a relative viability (NCI-H1666; first compound 0.08 µM) of 0.842 and a relative viability (NCI-H1666; first compound 0.253 µM) of 0.726. For the same compound, the relative viability (NCI-H1666; first compound 0.8 µM) was 0.862 and the relative viability (NCI-H1666; first compound 2.53 µM) was 0.829.
